Measurements from paper PMC11174926, “Composition Characterization of Cinnamomum osmophloeum Kanehira Hydrosol and Its Enhanced Effects on Erectile Function” (Plants, 2024).

Experiments:
PDE5 [1] = test system: PDE5; set-up: method as in PMID 18778098; conditions: cited from earlier work
Hep3B cells = assay: Cytotoxicity, MTT assay; assay type: cell-based; conditions: 200 µM, 24 h
Description: Figure S19. NOESY spectrum of 2-(2-hydroxyphenyl)oxetan-3-ol (7).
Figure S20. Cytotoxicity of CO hydrosol and its compounds on Hep3B. […]
trans-PO: trans-phenyloxetan-3-ol; cis-PO: cis-phenyloxetan-3-ol; trans-CA: trans- […]
The Hep3B cells were maintained in Dulbecco’s Modified Eagle medium (DMEM; HyClone,Washington, DC, US), supplemented with 10% fetal bovine sera(FBS; Gibco,Waltham, MA, US), 1 mM sodium pyruvate (Corning), and 1% […]
penicillin/streptomycin (Corning) at 37 ℃ in a humidified atmosphere of 5% CO2. Cell viability was measured using a colorimetric MTT assay. Cells were seeded in 96-well plates at a density of 1 × 1 0 4 cells/well. Stock solutions of samples in dimethyl sulfoxide (DMSO; Sigma-Aldrich) were stored in the dark at 4 ℃. Appropriate dilutions were prepared on the day of the experiments. […]
exceed 0.25% (v/v). After 24 h incubated with samples, the culture medium was removed and replaced with fresh medium containing 0.5 mg/mL of MTT (Sigma-Aldrich) for 1 h. The supernatant was removed and added 100 µL DMSO to dissolve formazan. Absorption at 570 nm for each well was measured using an ELISA microplate reader (BioTeck Instruments, Winooski, VT, USA).

PDE5 [2] = molecular target: T1, PDE5 (Homo sapiens, UniProt O76074); assay: PDE5 inhibition assay (PDE5A1 assay kit); assay type: biochemical
T1 construct: purchased BPS Bioscience
Description: The PDE5 assay was determined by using a PDE5A1 assay kit (BPS Bioscience, San Diego, CA, USA). The experiments were conducted following the manufacturer’s protocol. Sildenafil (10 nM) was used as a positive control.

| Compound | IC50 (PDE5 [1]) | PDE5 inhibition rate (PDE5 [1]; 10 µM) | cytotoxicity (Hep3B cells) | IC50 (PDE5 [2]) | inhibition at 0.1 µM (PDE5 [2]; read-out: PDE5 inhibition rate) | inhibition at 0.5 µM (PDE5 [2]; read-out: PDE5 inhibition rate) | inhibition at 1 µM (PDE5 [2]; read-out: PDE5 inhibition rate) | inhibition at 5 µM (PDE5 [2]; 5 µM, read-out: PDE5 inhibition rate) | inhibition at 10 µM (PDE5 [2]; read-out: PDE5 inhibition rate) | inhibition at 20 µM (PDE5 [2]; 20 µM, read-out: PDE5 inhibition rate) |
| --- | --- | --- | --- | --- | --- | --- | --- | --- | --- | --- |
| COc1ccc(-c2oc3c(CC=C(C)C)c(O[C@@H]4O[C@H](CO)[C@@H](O)[C@H](O)[C@H]4O)cc(O)c3c(=O)c2O[C@@H]2O[C@@H](C)[C@H](O)[C@@H](O)[C@H]2O)cc1 [icariin] | ~5.9 µM | – | – | – | – | – | – | – | – | – |
| O=C/C=C/c1ccccc1 [trans-cinnamaldehyde] | – | less than 20% | – | – | – | – | – | – | – | – |
| O[C@H]1CO[C@H]1c1ccccc1 (relative stereo) [cis-phenyloxetan-3-ol] | – | – | no cytotoxicity | 3.4 µM | 10.8% | 27.1% | 38.1% | 52.1% | 61.9% | – |
| O[C@@H]1CO[C@H]1c1ccccc1 (relative stereo) [trans-phenyloxetan-3-ol] | – | – | no cytotoxicity | 4.37 µM | 11.5% | 26.1% | 36.7% | – | 58.4% | 65.3% |
